According to patent EP1029544A1, “INTRA-CANCER-CELL NUCLEASE ACTIVATOR” (Nippon Shinyaku Co., Ltd., priority 1997, dated 1999):
≈ marks a conversion by molar mass, not a printed value.

Columns and labels:
Assay in all cases: Growth inhibitory effect (in vitro), MTT method
Format in all cases: cell-based
[1] = tested on: A-204; settings: Homo sapiens, A204, 72 h; A-204, Rhabdomyosarcoma; 3 days
Experimental: (§1) A 96-well plate was seeded with cells at a density of 10^4 cells/well. On the following day, the activator of Example 4 or adriamycin was added and the cultivation was continued. After 3 days the viable cell count was determined by the MTT method.

[2] = tested on: A431; settings: Homo sapiens, A-431, 72 h; A431, Epidemoid carcinoma; 3 days
Experimental: as §1

[3] = tested on: A546; settings: 72 h; A546, Lung carcinoma; 3 days
Experimental: as §1

[4] = tested on: A673; settings: Homo sapiens, 72 h; A673, Rhabdomyosarcoma; 3 days
Experimental: as §1

[5] = tested on: AsPC-1; settings: Homo sapiens, ASPC1, 72 h; AsPC-1, Pancreatic adenocarcinoma; 3 days
Experimental: as §1

[6] = tested on: BALB/c CL.7; settings: 72 h; BALB/c CL.7, Mouse normal fibroblast (non-cancer); 3 days
Experimental: as §1

[7] = tested on: BALB/c3T3 cloneA31; settings: 72 h; BALB/c3T3 cloneA31, Mouse embryonic cell (non-cancer); 3 days
Experimental: as §1

[8] = tested on: BHK-21; settings: Mesocricetus auratus, 72 h; BHK-21, Hamster kidney cell (non-cancer); 3 days
Experimental: as §1

[9] = tested on: BNL CL.2; settings: 72 h; BNL CL.2, Mouse normal liver cell (non-cancer); 3 days
Experimental: as §1

[10] = tested on: CALU6; settings: Homo sapiens, Calu-6, 72 h; CALU6, Lung anaplastic carcinoma; 3 days
Experimental: as §1

[11] = tested on: CHO-K1; settings: Cricetulus griseus, 72 h; CHO-K1, Chinese hamster ovary cell (non-cancer); 3 days
Experimental: as §1

[12] = tested on: COLO320DM; settings: Homo sapiens, COLO 320DM, 72 h, Colon adenocarcinoma, 3 days
Experimental: as §1

[13] = tested on: Clone9; settings: 72 h; Clone9, Rat normal liver cell (non-cancer); 3 days
Experimental: as §1

[14] = tested on: DU145; settings: Homo sapiens, DU-145, 72 h; DU145, Prostate carcinoma; 3 days
Experimental: as §1

[15] = tested on: G-361; settings: Homo sapiens, 72 h; G-361, Malignant melanoma; 3 days
Experimental: as §1

[16] = tested on: HCC-T; settings: 72 h, Liver cancer, 3 days
Experimental: as §1

[17] = tested on: HT1376; settings: Homo sapiens, HT-1376, 72 h; HT1376, Bladder carcinoma; 3 days
Experimental: as §1

[18] = tested on: HT144; settings: Homo sapiens, HT-144, 72 h; HT144, Malignant melanoma; 3 days
Experimental: as §1

[19] = tested on: HeLaS3; settings: Homo sapiens, HeLa S3, 72 h; HeLaS3, Cervix epitheloid carcinoma; 3 days
Experimental: as §1

[20] = tested on: Hs0578T; settings: 72 h, Breast ductal carcinoma, 3 days
Experimental: as §1

[21] = tested on: KB; settings: Homo sapiens, 72 h, Oral epidemiod carcinoma, 3 days
Experimental: as §1

[22] = tested on: KM12-HX; settings: Homo sapiens, 72 h, Colon cancer, 3 days
Experimental: as §1

[23] = tested on: LoVo; settings: Homo sapiens, 72 h, Colon adenocarcinoma, 3 days
Experimental: as §1

[24] = tested on: Ls174T; settings: Homo sapiens, 72 h, Colon adenocarcinoma, 3 days
Experimental: as §1

[25] = tested on: MDA-MB-134VI; settings: Homo sapiens, 72 h, Breast ductal carcinoma, 3 days
Experimental: as §1

[26] = tested on: MDA-MB-453; settings: Homo sapiens, 72 h; MDA-MB-453, Breast carcinoma; 3 days
Experimental: as §1

[27] = tested on: MDA-MB-468; settings: Homo sapiens, 72 h; MDA-MB-468, Breast adenocarcinoma; 3 days
Experimental: as §1

[28] = tested on: Malme 3M; settings: Homo sapiens, 72 h, Malignant melanoma, 3 days
Experimental: as §1

[29] = tested on: McA-8994; settings: 72 h; McA-8994, Rat hepatoma; 3 days
Experimental: as §1

[30] = tested on: NC65; settings: 72 h; NC65, Pancreatic cancer; 3 days
Experimental: as §1

[31] = tested on: NCTCclone1469; settings: 72 h; NCTCclone1469, Mouse normal liver cell (non-cancer); 3 days
Experimental: as §1

[32] = tested on: NIH/3T3; settings: NIH3T3, 72 h; NIH/3T3, Mouse embryonic cell (non-cancer); 3 days
Experimental: as §1

[33] = tested on: NRK-49F; settings: 72 h, Rat normal kidney fibroblast (non-cancer), 3 days
Experimental: as §1

[34] = tested on: OVCAR3; settings: Homo sapiens, OVCAR-3, 72 h; OVCAR3, Ovary adenocarcinoma; 3 days
Experimental: as §1

[35] = tested on: PC-3; settings: Homo sapiens, 72 h; PC-3, Prostate adenocarcinoma; 3 days
Experimental: as §1

[36] = tested on: PLC/PRF/5; settings: Homo sapiens, 72 h; PLC/PRF/5, Hepatoma; 3 days
Experimental: as §1

[37] = tested on: RD; settings: Homo sapiens, 72 h, Rhabdomyosarcoma, 3 days
Experimental: as §1

[38] = tested on: RT4; settings: Homo sapiens, RT-4, 72 h; RT4, Bladder papillima; 3 days
Experimental: as §1

[39] = tested on: SAOS2; settings: Homo sapiens, SAOS-2, 72 h; SAOS2, Osteogenic sarcoma; 3 days
Experimental: as §1

[40] = tested on: SK-BR-3; settings: Homo sapiens, 72 h; SK-BR-3, Breast adenocarcinoma; 3 days
Experimental: as §1

[41] = tested on: SK-HEP-1; settings: Homo sapiens, SK-HEP1, 72 h; SK-HEP-1, Liver adenocarcinoma; 3 days
Experimental: as §1

[42] = tested on: SK-OV-3; settings: Homo sapiens, 72 h; SK-OV-3, Ovary adenocarcinoma; 3 days
Experimental: as §1

[43] = tested on: SW480; settings: Homo sapiens, 72 h; SW480, Colon adenocarcinoma; 3 days
Experimental: as §1

[44] = tested on: Swiss/3T3; settings: 72 h; Swiss/3T3, Mouse embryonic cell (non-cancer); 3 days
Experimental: as §1

[45] = tested on: T47D; settings: Homo sapiens, 72 h, Breast ductal carchoma, 3 days
Experimental: as §1

[46] = tested on: TSU-PR-1; settings: Homo sapiens, TSU-Pr1, 72 h; TSU-PR-1, Prostate cancer; 3 days
Experimental: as §1

[47] = tested on: WM-266-4; settings: Homo sapiens, 72 h; WM-266-4, Melanoma; 3 days
Experimental: as §1

[48] = tested on: WRL68; settings: 72 h; WRL68, Human embryo liver cell (non-cancer); 3 days
Experimental: as §1

Question: How did the IC50 [1] turn out when COc1cccc2c1C(=O)c1c(O)c3c(c(O)c1C2=O)C[C@@](O)(C(=O)CO)C[C@@H]3O[C@H]1C[C@H](N)[C@H](O)[C@H](C)O1 [Adriamycin] was run?
Answer: Its IC50 is 0.076 µg/mL (≈ 0.14 µM).

Question: And the IC50 [2]?
Answer: Its IC50 is 0.052 µg/mL (≈ 0.0957 µM).

Question: What about the IC50 [3] of the same molecule?
Answer: Its IC50 is 0.831 µg/mL (≈ 1.53 µM).

Question: And the IC50 [4]?
Answer: The IC50 was 0.104 µg/mL (≈ 0.191 µM).

Question: What about the IC50 [5] of the same molecule?
Answer: Its IC50 is 0.8 µg/mL (≈ 1.47 µM).

Question: What about the IC50 [6] of the same molecule?
Answer: Its IC50 is 0.117 µg/mL (≈ 0.215 µM).

Question: What about the IC50 [7] of the same molecule?
Answer: The IC50 was 0.427 µg/mL (≈ 0.786 µM).

Question: And the IC50 [8]?
Answer: Its IC50 is 0.047 µg/mL (≈ 0.0865 µM).

Question: What about the IC50 [9] of the same molecule?
Answer: Its IC50 is 0.398 µg/mL (≈ 0.732 µM).

Question: What about the IC50 [10] of the same molecule?
Answer: The IC50 was 0.282 µg/mL (≈ 0.519 µM).

Question: And the IC50 [11]?
Answer: The IC50 was 0.02 µg/mL (≈ 0.0368 µM).

Question: And the IC50 [12]?
Answer: Its IC50 is 0.838 µg/mL (≈ 1.54 µM).

Question: And the IC50 [13]?
Answer: Its IC50 is 0.228 µg/mL (≈ 0.419 µM).

Question: And the IC50 [14]?
Answer: Its IC50 is 0.236 µg/mL (≈ 0.434 µM).

Question: And the IC50 [15]?
Answer: Its IC50 is 0.146 µg/mL (≈ 0.269 µM).

Question: And the IC50 [16]?
Answer: Its IC50 is 0.076 µg/mL (≈ 0.14 µM).

Question: And the IC50 [17]?
Answer: The IC50 was 0.217 µg/mL (≈ 0.399 µM).

Question: What about the IC50 [18] of the same molecule?
Answer: Its IC50 is 0.219 µg/mL (≈ 0.403 µM).

Question: And the IC50 [19]?
Answer: Its IC50 is 0.049 µg/mL (≈ 0.0902 µM).

Question: What about the IC50 [20] of the same molecule?
Answer: Its IC50 is 0.76 µg/mL (≈ 1.4 µM).

Question: And the IC50 [21]?
Answer: The IC50 was 0.025 µg/mL (≈ 0.046 µM).

Question: And the IC50 [22]?
Answer: The IC50 was 0.13 µg/mL (≈ 0.239 µM).

Question: What about the IC50 [23] of the same molecule?
Answer: Its IC50 is 0.065 µg/mL (≈ 0.12 µM).

Question: And the IC50 [24]?
Answer: Its IC50 is 0.096 µg/mL (≈ 0.177 µM).

Question: What about the IC50 [25] of the same molecule?
Answer: Its IC50 is 0.081 µg/mL (≈ 0.149 µM).

Question: What about the IC50 [26] of the same molecule?
Answer: The IC50 was 0.143 µg/mL (≈ 0.263 µM).

Question: And the IC50 [27]?
Answer: The IC50 was 0.057 µg/mL (≈ 0.105 µM).

Question: And the IC50 [28]?
Answer: The IC50 was 0.114 µg/mL (≈ 0.21 µM).

Question: And the IC50 [29]?
Answer: The IC50 was over 1 µg/mL.

Question: What about the IC50 [30] of the same molecule?
Answer: Its IC50 is 0.073 µg/mL (≈ 0.134 µM).

Question: And the IC50 [31]?
Answer: The IC50 was 0.101 µg/mL (≈ 0.186 µM).

Question: What about the IC50 [32] of the same molecule?
Answer: Its IC50 is 0.102 µg/mL (≈ 0.188 µM).

Question: And the IC50 [33]?
Answer: The IC50 was over 1 µg/mL.

Question: What about the IC50 [34] of the same molecule?
Answer: The IC50 was over 1 µg/mL.

Question: What about the IC50 [35] of the same molecule?
Answer: Its IC50 is over 1 µg/mL.

Question: What about the IC50 [36] of the same molecule?
Answer: Its IC50 is 0.042 µg/mL (≈ 0.0773 µM).

Question: And the IC50 [37]?
Answer: The IC50 was 0.208 µg/mL (≈ 0.383 µM).

Question: And the IC50 [38]?
Answer: Its IC50 is 0.058 µg/mL (≈ 0.107 µM).

Question: And the IC50 [39]?
Answer: The IC50 was 0.075 µg/mL (≈ 0.138 µM).

Question: And the IC50 [40]?
Answer: The IC50 was 0.078 µg/mL (≈ 0.144 µM).

Question: And the IC50 [41]?
Answer: The IC50 was 0.302 µg/mL (≈ 0.556 µM).

Question: What about the IC50 [42] of the same molecule?
Answer: Its IC50 is 0.252 µg/mL (≈ 0.464 µM).

Question: What about the IC50 [43] of the same molecule?
Answer: Its IC50 is 0.097 µg/mL (≈ 0.178 µM).

Question: And the IC50 [44]?
Answer: The IC50 was 0.903 µg/mL (≈ 1.66 µM).

Question: And the IC50 [45]?
Answer: Its IC50 is 0.114 µg/mL (≈ 0.21 µM).

Question: What about the IC50 [46] of the same molecule?
Answer: The IC50 was 0.572 µg/mL (≈ 1.05 µM).

Question: And the IC50 [47]?
Answer: The IC50 was 0.206 µg/mL (≈ 0.379 µM).

Question: What about the IC50 [48] of the same molecule?
Answer: The IC50 was 0.283 µg/mL (≈ 0.521 µM).
